Laboratory results reported in patent publication US8750968B2, “Device and procedure for the diagnosis or diagnostic preparation and/or therapy monitoring of inflammatory diseases such as rheumatoid arthritis” (MIVENION GmbH, priority 2007, dated 2014).

Experiments:
[1] = test system: activated rheumatoid arthritis; experiment: activity value AKT from ICG fluorescence imaging of both hands, two examinations four weeks apart; assay type: in vivo, human; conditions: for activity value AKT: current examination vs four weeks before, values less than 1 indicate a decrease in disease activity
Method: A correction factor (CF) is determined after the calculation of the average AUCRef value above the fingernails. The quotient of the mean AUCRef value and the correction factor (CF) should result in a reference factor (RF) with a value of 100. CF=mean AUCRef/100(RF) 100(RF)=mean AUCRef/CF
Each of the obtained 28 AUC values of the interphalangeal articulations of the hands is processed by mathematical correlation. By dividing the AUC values by CF, corrected AUC values (AUCcorr) are obtained for the ROI above the respective interphalangeal articulations of the hands. AUCcorr=AUC/CF
The inventive process is further characterized by the layout of a method that allows the comparison of different examinations on the same patient. This method should compensate the different levels of the fluorescence signal intensity that result from the variable pharmacokinetics of ICG. The correction factor (CF) is calculated for each measurement leading to the formation of the signal intensity curve. Any number or any type of examinations can be assigned to one another by means of the CF of the ROI above the fingernails. Due to the division of the AUCcorr values from an arbitrary examination by CF, they can be directly compared with other AUCcorr values from previous examinations. The equation for calculating an arbitrary examination n is as follows: AUCcorr(n)=AUC(n)/CF(n)
The value AKT for the time-dependent disease activity results from the possibility of direct comparability of the corrected AUC values. The formula for calculating the activity value AKT of any two examinations over time is as follows: AKT=AUCcorr(n)/AUCcorr(n-1)
Values greater than 1 point out an increasing disease activity, respectively a deterioration of the result, whereas values less than 1 indicate an enhancement of the result, respectively a decrease in disease activity.
Methods and implementation: Intravenous injection of indocyanine green (ICG pulsion) at a dose of 0.2 mg/kg. Bolus injection for about 5 s, the measurement time 0 corresponds to the termination of the Injection. Measuring device: simultaneous measurement of both the hands, illumination surface about 20 cm×30 cm, LEDs, excitation wavelength of 775 nm, detection >800 nm (2 long-pass interference filters, each of whose λ50%=800 nm), iCCD camera with standard lens (water/Peltier-type cooling).
Data collection (image capture) for both the hands up to 10 minutes after the injection with a cycle time of 3 s (20 frames/min). […]
The activity values AKT are calculated by dividing each of the corrected results of the […] examination by each of the corresponding corrected results of the second examination respectively.

[2] = test system: activated rheumatoid arthritis; experiment: clinical examination and patient report after four weeks of intensive therapy; assay type: in vivo, human; conditions: four weeks after start of therapy
Method: Patient, weight 59 kg. Patient with an acute progression of rheumatoid arthritis and damage to the joints DIP-R3, PIP-R3 and PIP-R4. The patient was examined twice: the current examination as well as four weeks before the current examination. An intensive therapy using Infliximab® was administered upon the diagnosis of an activated rheumatoid arthritis four weeks before the current examination.

With Infliximab [Infliximab®] the “activity value AKT” value ([1]; joint DIP-R3) was 0.71, the “activity value AKT” value ([1]; joint PIP-R3) was 0.65 and the “activity value AKT” value ([1]; joint printed PIP-84) was 0.911. For the same substance, the “effectiveness of the ongoing intensified therapy” value ([1]; patient, after four weeks of therapy) was “could be quantitatively demonstrated just after four weeks”, the “subjective perception of the disease (morning stiffness, pain sensations)” value ([2]; patient report) was “improvement in the subjective perception of the disease” and the “clinical examination result (inflammation of the diseased joints)” value ([2]; patient) was “essentially unchanged result with only a low-level decline in the inflammation of the diseased joints”.
